Measured values: PubChem BioAssay (NCI)
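Values below derive from 48-hour exposures of cells grown in 96-well plates, with endpoints linearly interpolated between the two concentrations bracketing the appropriate inhibition level. The concentration for full growth arrest is given as TGI.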

What was measured:
Experiment in all cases: DTP human tumour cell line panel, 48 h
[1] = test system: HOP-92 NSCLC
[2] = test system: OVCAR-4 ovarian
[3] = test system: OVCAR-3 ovarian
[4] = test system: MDA-MB-435
[5] = test system: SK-MEL-5 melanoma
[6] = test system: NCI-H226 lung
[7] = test system: SK-MEL-28 melanoma
[8] = test system: RXF 393 renal
[9] = test system: ACHN renal
[10] = test system: SF-539 CNS
[11] = test system: T-47D breast
[12] = test system: A549 NSCLC
[13] = test system: BT-549 breast
[14] = test system: A498 renal
[15] = test system: U251 CNS
[16] = test system: HCT-15 colon
[17] = test system: SK-MEL-2 melanoma
[18] = test system: SR leukemia
[19] = test system: UO-31 renal
[20] = test system: SW-620 colon
[21] = test system: SNB-75 CNS
[22] = test system: 786-0 renal
[23] = test system: PC-3 prostate
[24] = test system: SF-295 CNS
[25] = test system: MDA-MB-231 breast
[26] = test system: CCRF-CEM leukemia
[27] = test system: SF-268 CNS
[28] = test system: LOX IMVI melanoma
[29] = test system: HCT-116 colon
[30] = test system: M14 melanoma
[31] = test system: OVCAR-5 ovarian
[32] = test system: HOP-62 NSCLC
[33] = test system: NCI-H522 lung
[34] = test system: RPMI-8226 leukemia
[35] = test system: SN12C renal
[36] = test system: OVCAR-8 ovarian
[37] = test system: UACC-257 melanoma
[38] = test system: K-562 leukemia
[39] = test system: TK-10 renal
[40] = test system: SNB-19 CNS
[41] = test system: NCI-H460 lung
[42] = test system: DU-145 prostate
[43] = test system: NCI-H23 lung
[44] = test system: MOLT-4 leukemia
[45] = test system: COLO 205 colon
[46] = test system: HL-60(TB) leukemia
[47] = test system: HS 578T breast
[48] = test system: EKVX NSCLC
[49] = test system: CAKI-1 renal
[50] = test system: SK-OV-3 ovarian
[51] = test system: NCI/ADR-RES ovarian
[52] = test system: UACC-62 melanoma
[53] = test system: MCF7 breast
[54] = test system: HT29 colon
[55] = test system: HCC-2998 colon
[56] = test system: IGROV1 ovarian
[57] = test system: MDA-N
[58] = test system: KM12 colon
[59] = test system: MALME-3M melanoma

## CN(O)C(=O)/C=C/c1ccc(OCc2cccc(Cl)c2)cc1
[1]
  TGI: > 100 µM
[2]
  TGI: 86.6 µM
[3]
  TGI: > 100 µM
[4]
  TGI: > 100 µM
[5]
  TGI: 78.2 µM
[6]
  TGI: 73.9 µM
[7]
  TGI: > 100 µM
[8]
  TGI: > 100 µM
[9]
  TGI: 29.9 µM
[10]
  TGI: > 100 µM
[11]
  TGI: 66.5 µM
[12]
  TGI: 63.5 µM
[13]
  TGI: 85.3 µM
[14]
  TGI: 66 µM
[15]
  TGI: > 100 µM
[16]
  TGI: 29.1 µM
[17]
  TGI: 82.7 µM
[18]
  TGI: 38.4 µM
[19]
  TGI: 23.5 µM
[20]
  TGI: > 100 µM
[21]
  TGI: > 100 µM
[22]
  TGI: 47.2 µM
[23]
  TGI: > 100 µM
[24]
  TGI: > 100 µM
[25]
  TGI: > 100 µM
[26]
  TGI: 65.6 µM
[27]
  TGI: > 100 µM
[28]
  TGI: 30.5 µM
[29]
  TGI: 32.9 µM
[30]
  TGI: > 100 µM
[31]
  TGI: > 100 µM
[32]
  TGI: > 100 µM
[33]
  TGI: > 100 µM
[34]
  TGI: 96.9 µM
[35]
  TGI: 55.9 µM
[36]
  TGI: 32.8 µM
[37]
  TGI: > 100 µM
[38]
  TGI: > 100 µM
[39]
  TGI: > 100 µM
[40]
  TGI: > 100 µM
[41]
  TGI: 43.3 µM
[42]
  TGI: 54.8 µM
[43]
  TGI: 49 µM
[44]
  TGI: 39.6 µM
[45]
  TGI: > 100 µM
[46]
  TGI: 52 µM
[47]
  TGI: > 100 µM
[48]
  TGI: > 100 µM
[49]
  TGI: 62.6 µM
[50]
  TGI: > 100 µM
[51]
  TGI: 46.7 µM
[52]
  TGI: 31.3 µM
[53]
  TGI: > 100 µM
[54]
  TGI: 34.9 µM
[55]
  TGI: 72.7 µM
[56]
  TGI: 60.8 µM
[57]
  TGI: > 100 µM
[58]
  TGI: 41.3 µM

## O=C(O)c1nc2ccc(C(F)(F)F)cc2[nH]c1=O
[1]
  TGI: > 100 µM
[2]
  TGI: > 100 µM
[3]
  TGI: > 100 µM
[4]
  TGI: > 100 µM
[5]
  TGI: > 100 µM
[6]
  TGI: > 100 µM
[7]
  TGI: > 100 µM
[8]
  TGI: > 100 µM
[9]
  TGI: > 100 µM
[10]
  TGI: > 100 µM
[11]
  TGI: > 100 µM
[12]
  TGI: > 100 µM
[13]
  TGI: > 100 µM
[14]
  TGI: > 100 µM
[15]
  TGI: > 100 µM
[16]
  TGI: > 100 µM
[17]
  TGI: > 100 µM
[18]
  TGI: > 100 µM
[19]
  TGI: > 100 µM
[20]
  TGI: > 100 µM
[23]
  TGI: > 100 µM
[24]
  TGI: > 100 µM
[25]
  TGI: > 100 µM
[26]
  TGI: > 100 µM
[27]
  TGI: > 100 µM
[28]
  TGI: > 100 µM
[29]
  TGI: > 100 µM
[30]
  TGI: > 100 µM
[31]
  TGI: > 100 µM
[32]
  TGI: > 100 µM
[33]
  TGI: > 100 µM
[34]
  TGI: > 100 µM
[35]
  TGI: > 100 µM
[36]
  TGI: > 100 µM
[37]
  TGI: > 100 µM
[38]
  TGI: > 100 µM
[39]
  TGI: > 100 µM
[40]
  TGI: > 100 µM
[41]
  TGI: > 100 µM
[42]
  TGI: > 100 µM
[43]
  TGI: > 100 µM
[44]
  TGI: > 100 µM
[45]
  TGI: > 100 µM
[46]
  TGI: > 100 µM
[47]
  TGI: > 100 µM
[48]
  TGI: > 100 µM
[49]
  TGI: > 100 µM
[50]
  TGI: > 100 µM
[51]
  TGI: > 100 µM
[52]
  TGI: > 100 µM
[53]
  TGI: > 100 µM
[54]
  TGI: > 100 µM
[55]
  TGI: > 100 µM
[59]
  TGI: > 100 µM
[56]
  TGI: > 100 µM
[57]
  TGI: > 100 µM
[58]
  TGI: > 100 µM
